One data set deals with Rac. Put plainly: Rac activation pull down assay (PAK beads, Western blot). The note with it: Western Blot (FIG. 2a). Format: cell-based. The protocol: To determine which of these compounds should be further pursued, a biochemical pull down assay was performed to confirm specific inhibition of Rac activation indicated by disruption of the interaction between Rac and […]. The assay initially required treatment of cells followed by pull down and analysis with Western blot. The cells were first starved in serum free media for 2 hours. They were then re-suspended in serum-containing medium and inhibitors added at desired concentration. Following incubation for the desired length of time, the cells were pelleted and lysed with Magnesium Lysis Buffer (Millipore Mg^2+ lysis/wash buffer). The Rac protein and any bound proteins were then collected with Pak Beads (Millipore Rac/cdc42 Assay Reagent (PAK-1 PBD, agarose). Bound protein was subsequently removed with lysis buffer and subject to Western Blot analysis.
Compound 1 was identified as a lead compound from the above analyses. […] The Western Blot and pull down analyses are also shown for the compound DMSO, and the compound NSC23776, which is a known inhibitor of Rac1 binding and of Rac activation by Rac-specific RhoGEFs.
(Immunoblotting shows a protein as a band on a membrane.)

For a further data set, the target named is JAK1 (Homo sapiens, UniProt P23458). Description: Kinase screening. Format: biochemical. The protocol:
(§1) Compound 1 was tested for its efficacy in inhibiting activities of 40 kinases and binding with 12 GPCRs both as an antagonist and an agonist.

For the next data set, the target named is MAPK3 (ERK1) (Homo sapiens, UniProt P27361). Description: Kinase screening. Format: biochemical. The procedure:
as §1

The target in a further data set is AKT1 (PKB alpha) (Homo sapiens, UniProt P31749). Description: Kinase screening. The data set is classed as biochemical. The procedure:
as §1

A further data set concerns the target PIK3C3 (hVPS34) (Homo sapiens, UniProt Q8NEB9). Description: Kinase screening. The data set is classed as biochemical. The procedure: as §1
A further data set addresses AKT2 (PKB beta) (Homo sapiens, UniProt P31751). Put plainly: Kinase screening. Format: biochemical. The protocol: as §1
The next data set addresses PAK6 (Homo sapiens, UniProt Q9NQU5). Description: Kinase screening. The data set is classed as biochemical. The protocol: as §1
A further data set concerns the target PAK7 (KIAA1264) (Homo sapiens, UniProt Q9P286). Description: Kinase screening. Format: biochemical. The procedure: as §1
The next data set has as its target ABL1 (Homo sapiens, UniProt P00519). Put plainly: Kinase screening. The data set is classed as biochemical. The procedure:
as §1

For another data set, the target named is PIK3C2B (PI3K-C2 beta) (Homo sapiens, UniProt O00750). Description: Kinase screening. The data set is classed as biochemical. The protocol: as §1
Sequence of PIK3C2B (PI3K-C2 beta) (O00750 whole entry, species assumed): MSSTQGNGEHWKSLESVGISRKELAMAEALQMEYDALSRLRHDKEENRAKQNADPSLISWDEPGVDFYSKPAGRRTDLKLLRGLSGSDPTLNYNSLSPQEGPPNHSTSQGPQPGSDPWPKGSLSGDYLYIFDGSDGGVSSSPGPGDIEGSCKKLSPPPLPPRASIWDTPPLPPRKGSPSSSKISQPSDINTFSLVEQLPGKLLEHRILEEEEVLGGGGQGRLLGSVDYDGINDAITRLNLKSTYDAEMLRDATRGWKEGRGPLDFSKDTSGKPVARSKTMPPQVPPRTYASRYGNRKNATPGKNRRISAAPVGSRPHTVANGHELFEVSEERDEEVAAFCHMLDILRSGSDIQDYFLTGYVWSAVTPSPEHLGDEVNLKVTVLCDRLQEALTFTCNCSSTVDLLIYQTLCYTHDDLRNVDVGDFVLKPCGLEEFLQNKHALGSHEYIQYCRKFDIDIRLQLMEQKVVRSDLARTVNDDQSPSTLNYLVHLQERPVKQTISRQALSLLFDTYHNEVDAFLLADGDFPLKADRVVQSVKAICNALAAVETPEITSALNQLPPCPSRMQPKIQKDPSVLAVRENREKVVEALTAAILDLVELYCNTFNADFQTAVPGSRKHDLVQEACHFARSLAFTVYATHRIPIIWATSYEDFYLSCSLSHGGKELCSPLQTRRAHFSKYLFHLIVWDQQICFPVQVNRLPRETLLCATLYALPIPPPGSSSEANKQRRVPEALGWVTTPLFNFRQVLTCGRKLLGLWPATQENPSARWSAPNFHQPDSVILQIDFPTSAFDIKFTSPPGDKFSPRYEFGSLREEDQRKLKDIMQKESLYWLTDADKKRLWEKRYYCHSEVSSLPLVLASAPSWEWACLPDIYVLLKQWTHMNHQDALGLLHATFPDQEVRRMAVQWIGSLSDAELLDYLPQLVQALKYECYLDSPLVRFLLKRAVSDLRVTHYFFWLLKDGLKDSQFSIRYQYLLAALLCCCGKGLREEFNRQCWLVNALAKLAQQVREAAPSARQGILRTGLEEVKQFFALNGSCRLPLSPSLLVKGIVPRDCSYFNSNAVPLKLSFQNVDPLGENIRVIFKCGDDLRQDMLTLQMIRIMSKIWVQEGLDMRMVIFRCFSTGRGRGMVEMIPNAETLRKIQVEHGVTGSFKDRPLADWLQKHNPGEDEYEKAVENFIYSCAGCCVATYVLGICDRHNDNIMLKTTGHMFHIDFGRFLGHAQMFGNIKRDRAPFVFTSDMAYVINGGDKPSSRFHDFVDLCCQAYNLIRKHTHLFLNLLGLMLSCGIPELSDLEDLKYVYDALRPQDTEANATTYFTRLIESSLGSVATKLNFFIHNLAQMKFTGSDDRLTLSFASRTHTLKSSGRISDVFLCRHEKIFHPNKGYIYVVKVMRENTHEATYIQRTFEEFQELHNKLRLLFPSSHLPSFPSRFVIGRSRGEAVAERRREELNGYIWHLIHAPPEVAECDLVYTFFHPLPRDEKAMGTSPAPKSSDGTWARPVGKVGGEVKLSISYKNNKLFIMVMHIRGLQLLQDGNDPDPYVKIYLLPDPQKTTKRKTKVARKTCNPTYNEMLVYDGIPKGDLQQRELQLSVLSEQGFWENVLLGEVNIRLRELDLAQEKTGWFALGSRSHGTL
The next data set deals with PAK3 (Homo sapiens, UniProt O75914). Description: Kinase screening. Format: biochemical. The protocol:
as §1

The target in a further data set is ROCK2 (Homo sapiens, UniProt O75116). Put plainly: Kinase screening. The data set is classed as biochemical. The protocol:
as §1

The next data set deals with EGFR (ErbB1) (Homo sapiens, UniProt P00533). Description: Kinase screening. The data set is classed as biochemical. The procedure: as §1
A further data set deals with JAK3 (Homo sapiens, UniProt P52333). Description: Kinase screening. Format: biochemical. The protocol: as §1
A further data set deals with ROCK1 (Homo sapiens, UniProt Q13464). Put plainly: Kinase screening. The data set is classed as biochemical. The procedure: as §1
In the next data set the target is CDK1/cyclin B (Homo sapiens, UniProt P06493). Put plainly: Kinase screening. The data set is classed as biochemical. The protocol: as §1
Another data set has as its target FLT3 (Homo sapiens, UniProt P36888). Put plainly: Kinase screening. The data set is classed as biochemical. The protocol: as §1
Another data set addresses Tiam1-Rac complex (Homo sapiens, UniProt P63000). Description: Homologous time resolved fluorescence (HTRF) binding assay. The procedure: (§2) Compound 1 was tested for its efficacy in binding with Rac1 in two independent binding assays, i.e., 2D NMR spectroscopy and Homologous time resolved fluorescence assay (HTRF).
(§3) In the 2D NMR assay, samples containing 50 μM Rac1 and 250 μM or 400 μM Compound 1 were used.
(§4) Compound 2 was tested for its efficacy in binding with Rac1 in two independent binding assays, i.e., 2D NMR spectroscopy and Homologous time resolved fluorescence assay (HTRF).
(§5) In the 2D NMR assay, a sample containing 50 μM Rac1 and 250 μM Compound 2 was used.
For orientation: TR-FRET usually uses a lanthanide donor and a delayed reading to cut background.

Data set [1] has as its system normal bone marrow hematopoietic and progenitor cells. Put plainly: Colony forming unit assay (CFU assay) for toxicity. Format: cell-based. The note with it: semi-solid media, different doses. The protocol:
Compound 1 was tested for toxicity in a colony forming unit assay (CFU assay), which was performed by plating normal bone marrow hematopoietic and progenitor cells in semi-solid media supplemented with different doses of Compound 1, NSC23766, and DMSO.
Compound 2 was also tested for toxicity in a colony forming unit assay (CFU assay), which was performed by plating normal bone marrow hematopoietic and progenitor cells in semi-solid media supplemented with different doses of Compound 2, NSC23766, and DMSO.

For a further data set, the system named is SEM cells. Put plainly: Proliferation assay in SEM leukemia cells. Format: cell-based. Particulars: read-out: IC50, inhibition of proliferation. The protocol:
Dose Dependent Inhibition of Proliferation The 100 compounds selected from the initial in silico screen were assayed for inhibition of proliferation in two leukemia cell lines, SEM and P12 by Cell Titer Glo. The cells for the proliferation assay were spun down and re-suspended. The cell suspension was then divided and the compound to be tested added in desired concentrations and subsequently plated. Following an incubation period, the Cell Titer Glo reagent (Promega CellTiter 96® Aqueous Non-Radioactive Cell Proliferation Assay) was added and allowed to incubate. The absorbance is subsequently measured at 490 nm using a plate reader. Each compound was analyzed for its effects on cell proliferation.
The lead compound, i.e. Compound 1, was analyzed for its effect on cell proliferation at various doses on three different leukemia cell lines: SEM, P12, and Loucy. In order to quantitate the percentage inhibition of cell proliferation, Cell Titer Glo analysis was completed as described in Example 2 above.
FIGS. 3a-3c show three graphs illustrating the dose dependent inhibition of proliferation of Compound 1 in SEM, P12, and Loucy cells as measured by MTS assay. […] Compound 1 was further analyzed for its effect on cell apoptosis and cell death using a flow based assay using Annexin V staining. […]

Another data set deals with SEM cell line. Put plainly: Annexin V flow assay for apoptosis and cell death, SEM. The data set is classed as cell-based. The note with it: Annexin V staining. From the text:
FIGS. 3a-3c show three graphs illustrating the dose dependent inhibition of proliferation of Compound 1 in SEM, P12, and Loucy cells as measured by MTS assay. […] Compound 1 was further analyzed for its effect on cell apoptosis and cell death using a flow based assay using Annexin V staining.
Compound 2 was further analyzed for its effect on cell apoptosis and cell death using a flow based assay using Annexin V staining.

A further data set has as its target Rac1 (Homo sapiens, UniProt P63000). Description: 2D NMR spectroscopy binding assay. Particulars: 50 μM Rac1 and 250 μM or 400 μM Compound 1. The procedure: as §2, §3, §4, §5

Sequence of JAK1 (P23458 whole entry, species assumed): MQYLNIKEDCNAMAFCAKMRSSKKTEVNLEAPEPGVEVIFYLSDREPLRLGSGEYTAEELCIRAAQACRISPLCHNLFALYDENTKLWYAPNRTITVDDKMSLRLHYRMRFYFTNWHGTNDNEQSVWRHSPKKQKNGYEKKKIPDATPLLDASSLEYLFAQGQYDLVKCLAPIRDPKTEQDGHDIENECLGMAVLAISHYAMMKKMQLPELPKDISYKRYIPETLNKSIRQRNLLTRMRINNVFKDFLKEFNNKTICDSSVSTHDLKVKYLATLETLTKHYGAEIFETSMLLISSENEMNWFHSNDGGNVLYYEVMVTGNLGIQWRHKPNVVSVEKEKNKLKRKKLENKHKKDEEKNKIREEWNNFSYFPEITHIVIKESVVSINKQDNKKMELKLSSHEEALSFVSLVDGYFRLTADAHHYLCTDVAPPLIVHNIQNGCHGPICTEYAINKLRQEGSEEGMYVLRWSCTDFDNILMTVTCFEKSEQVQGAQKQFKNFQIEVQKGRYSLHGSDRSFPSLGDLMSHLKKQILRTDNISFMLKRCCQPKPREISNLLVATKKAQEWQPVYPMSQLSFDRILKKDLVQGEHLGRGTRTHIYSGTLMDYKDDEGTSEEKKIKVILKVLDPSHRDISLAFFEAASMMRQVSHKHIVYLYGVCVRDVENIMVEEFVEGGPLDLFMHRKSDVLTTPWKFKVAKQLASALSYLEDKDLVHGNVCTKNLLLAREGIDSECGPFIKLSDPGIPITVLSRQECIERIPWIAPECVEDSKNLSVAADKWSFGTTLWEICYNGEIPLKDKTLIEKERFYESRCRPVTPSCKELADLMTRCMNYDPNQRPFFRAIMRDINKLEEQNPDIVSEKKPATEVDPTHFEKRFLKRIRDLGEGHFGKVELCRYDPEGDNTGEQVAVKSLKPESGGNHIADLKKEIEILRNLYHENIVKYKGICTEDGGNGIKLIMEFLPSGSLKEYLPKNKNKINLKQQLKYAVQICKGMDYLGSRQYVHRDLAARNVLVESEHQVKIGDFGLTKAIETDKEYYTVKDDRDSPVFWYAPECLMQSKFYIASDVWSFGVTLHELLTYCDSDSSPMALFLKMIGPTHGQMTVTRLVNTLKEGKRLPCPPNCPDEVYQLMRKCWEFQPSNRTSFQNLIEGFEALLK
Sequence of PIK3C3 (hVPS34) (Q8NEB9 whole entry): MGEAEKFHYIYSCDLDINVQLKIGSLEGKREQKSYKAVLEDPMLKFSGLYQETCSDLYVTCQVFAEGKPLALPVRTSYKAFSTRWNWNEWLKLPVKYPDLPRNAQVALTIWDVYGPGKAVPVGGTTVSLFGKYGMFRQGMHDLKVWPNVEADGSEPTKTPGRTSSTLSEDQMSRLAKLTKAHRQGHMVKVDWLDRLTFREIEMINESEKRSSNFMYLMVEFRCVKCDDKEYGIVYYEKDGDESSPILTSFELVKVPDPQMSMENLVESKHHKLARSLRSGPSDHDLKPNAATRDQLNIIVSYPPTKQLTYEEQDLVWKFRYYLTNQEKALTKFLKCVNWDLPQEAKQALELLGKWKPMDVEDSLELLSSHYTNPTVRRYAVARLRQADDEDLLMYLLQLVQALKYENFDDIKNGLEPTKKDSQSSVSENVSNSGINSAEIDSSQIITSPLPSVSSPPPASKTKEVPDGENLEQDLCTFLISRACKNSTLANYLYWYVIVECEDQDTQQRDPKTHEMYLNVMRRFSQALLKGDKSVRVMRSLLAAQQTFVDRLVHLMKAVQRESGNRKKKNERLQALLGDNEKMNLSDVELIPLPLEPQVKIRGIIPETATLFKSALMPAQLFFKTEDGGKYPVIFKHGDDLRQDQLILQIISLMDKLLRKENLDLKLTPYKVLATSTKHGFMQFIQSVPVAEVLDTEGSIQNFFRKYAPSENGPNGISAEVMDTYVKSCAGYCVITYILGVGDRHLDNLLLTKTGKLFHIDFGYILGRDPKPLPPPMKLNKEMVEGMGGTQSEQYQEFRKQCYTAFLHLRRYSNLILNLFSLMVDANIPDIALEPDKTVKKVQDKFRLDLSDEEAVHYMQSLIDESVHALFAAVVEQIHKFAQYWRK
Sequence of AKT1 (PKB alpha) (P31749 whole entry, species assumed): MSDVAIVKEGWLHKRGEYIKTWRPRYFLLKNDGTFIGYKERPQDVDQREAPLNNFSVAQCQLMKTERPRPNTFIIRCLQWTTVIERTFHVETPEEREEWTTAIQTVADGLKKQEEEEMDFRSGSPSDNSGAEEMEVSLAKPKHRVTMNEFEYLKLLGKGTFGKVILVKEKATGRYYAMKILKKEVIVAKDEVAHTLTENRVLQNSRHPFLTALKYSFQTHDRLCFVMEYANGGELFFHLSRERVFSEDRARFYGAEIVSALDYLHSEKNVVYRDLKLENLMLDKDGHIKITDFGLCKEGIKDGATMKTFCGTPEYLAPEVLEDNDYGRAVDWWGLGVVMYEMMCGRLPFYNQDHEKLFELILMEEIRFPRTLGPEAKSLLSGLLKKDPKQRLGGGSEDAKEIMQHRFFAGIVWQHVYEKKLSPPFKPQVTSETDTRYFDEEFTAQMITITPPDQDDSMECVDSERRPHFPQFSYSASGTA
Sequence of AKT2 (PKB beta) (P31751 whole entry, species assumed): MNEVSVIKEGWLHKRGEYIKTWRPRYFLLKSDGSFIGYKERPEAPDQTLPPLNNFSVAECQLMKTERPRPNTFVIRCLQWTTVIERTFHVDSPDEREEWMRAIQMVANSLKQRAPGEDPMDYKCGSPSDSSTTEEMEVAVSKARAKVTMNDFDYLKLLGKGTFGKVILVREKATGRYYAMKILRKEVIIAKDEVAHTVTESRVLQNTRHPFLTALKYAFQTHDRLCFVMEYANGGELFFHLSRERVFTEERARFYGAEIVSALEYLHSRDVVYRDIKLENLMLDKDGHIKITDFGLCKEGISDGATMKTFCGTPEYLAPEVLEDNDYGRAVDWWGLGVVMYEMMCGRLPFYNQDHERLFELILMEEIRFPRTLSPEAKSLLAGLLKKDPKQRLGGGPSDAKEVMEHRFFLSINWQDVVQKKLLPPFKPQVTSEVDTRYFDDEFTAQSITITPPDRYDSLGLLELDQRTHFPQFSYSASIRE
Sequence of MAPK3 (ERK1) (P27361 whole entry, species assumed): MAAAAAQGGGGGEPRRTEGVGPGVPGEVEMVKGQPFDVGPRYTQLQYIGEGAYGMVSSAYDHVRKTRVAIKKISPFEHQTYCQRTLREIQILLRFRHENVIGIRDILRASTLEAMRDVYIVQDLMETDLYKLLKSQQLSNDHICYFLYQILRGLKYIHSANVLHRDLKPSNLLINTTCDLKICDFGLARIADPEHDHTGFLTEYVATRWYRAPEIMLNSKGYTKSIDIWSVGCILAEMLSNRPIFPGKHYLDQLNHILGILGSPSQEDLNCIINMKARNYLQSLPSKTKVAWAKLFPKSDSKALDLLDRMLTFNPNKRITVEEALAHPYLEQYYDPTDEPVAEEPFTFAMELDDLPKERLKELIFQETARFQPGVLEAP

As to `CCc1ccc(CN(C)C(=O)CCc2nnc(CCc3c[nH]c4ccccc34)o2)nc1` (racemic) [Compound 1], in the data set on Rac, the “total Rac levels” value is “no significant effect”. In addition, the Rac activation entry with Rac (pull down) was “dose dependent reduction”. Also, the inhibition percentage is listed as −3.3 percentage against JAK1; 6.7 percentage against MAPK3 (ERK1); −6.7 percentage against AKT1 (PKB alpha); −12.5 percentage against PIK3C3 (hVPS34); 11.5 percentage on AKT2 (PKB beta); −0.6 percentage at PAK6. Further, the inhibition percentage is reported as −11.5 percentage on PAK7 (KIAA1264); 0.6 percentage against ABL1; −10.9 percentage on PIK3C2B (PI3K-C2 beta); −10.2 percentage against PAK3; −2.0 percentage against ROCK2; −10.4 percentage against EGFR (ErbB1). Also, the inhibition percentage at JAK3 is −16.3 percentage; against ROCK1, −4.6 percentage; at CDK1/cyclin B it was −2.3 percentage; at FLT3, −15.3 percentage. At Tiam1-Rac complex, the “binding in the HTRF assay” value is given as “no binding was observed”. Moreover, in [1], the “toxicity toward normal bone marrow cells” value is listed as “did not exhibit toxicity”. Moreover, the IC50 in the data set with SEM cells is 43.8 µM. In the data set on SEM cell line, the “cell apoptosis and cell death” value is “caused cells apoptosis and cell death”. In addition, the “binding to Rac1 by 2D NMR” value on Rac1 is given as “did not indicate any binding”.
